Measured values as given in paper PMC3189943, “Catalytic Properties of the Isolated Diaphorase Fragment of the NAD^+-Reducing [NiFe]-Hydrogenase from Ralstonia eutropha” (PLoS ONE, 2011).
Like-named read-outs stand apart in the source and are kept apart here. Values belong to the molecule of their own block, whether it stands above or below them.

Columns and labels:
[1] = target: T1, HoxFU (diaphorase moiety of the NAD+-reducing soluble [NiFe]-hydrogenase, SH) (Cupriavidus necator, UniProt P22317); assay: protein film electrochemistry, inhibition of NAD+ reduction current; assay type: biochemical; settings: -412 mV, 0.14 mM NAD+, 50 mM Tris-HCl pH 8.0; enzyme adsorbed on graphite electrode
T1 construct: gene hoxF; HoxFU heterodimer without HoxHY and HoxI; N-terminal Strep-tag II on HoxF kept; plasmid pGE553, homologous overproduction in R. eutropha HF424; Strep-Tactin plus size exclusion; apparent 110 kDa; HoxF 67 kDa, HoxU 27 and 23 kDa (both with original termini, unidentified modification); FMN and Fe-S clusters; with NAD-reducing hydrogenase HoxS subunit gamma
T1 sequence (P22317 whole entry): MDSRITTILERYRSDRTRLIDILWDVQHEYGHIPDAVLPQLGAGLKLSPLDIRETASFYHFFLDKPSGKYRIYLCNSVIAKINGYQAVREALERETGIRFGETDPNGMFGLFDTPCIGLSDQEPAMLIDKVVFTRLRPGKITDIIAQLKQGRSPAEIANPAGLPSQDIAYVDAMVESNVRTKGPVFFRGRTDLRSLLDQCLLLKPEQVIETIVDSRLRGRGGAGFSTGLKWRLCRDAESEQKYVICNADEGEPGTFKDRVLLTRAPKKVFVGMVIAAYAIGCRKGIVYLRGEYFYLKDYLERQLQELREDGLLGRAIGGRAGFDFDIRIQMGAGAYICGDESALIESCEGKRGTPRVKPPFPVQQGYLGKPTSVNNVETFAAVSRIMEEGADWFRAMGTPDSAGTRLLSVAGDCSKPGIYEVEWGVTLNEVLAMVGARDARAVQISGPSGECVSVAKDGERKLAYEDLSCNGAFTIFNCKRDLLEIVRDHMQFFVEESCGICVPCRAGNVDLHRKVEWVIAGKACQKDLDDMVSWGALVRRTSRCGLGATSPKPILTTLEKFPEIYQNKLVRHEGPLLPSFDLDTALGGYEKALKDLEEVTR
T1 sequence (P22318 2-234 partner): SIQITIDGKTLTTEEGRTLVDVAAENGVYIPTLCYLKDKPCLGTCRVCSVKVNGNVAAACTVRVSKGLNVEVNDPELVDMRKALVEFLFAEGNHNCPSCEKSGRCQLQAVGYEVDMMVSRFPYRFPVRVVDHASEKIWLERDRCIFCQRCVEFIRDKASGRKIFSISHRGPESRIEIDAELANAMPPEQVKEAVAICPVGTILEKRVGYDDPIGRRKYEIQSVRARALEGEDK

[2] = target: T1, HoxFU (diaphorase moiety of the NAD+-reducing soluble [NiFe]-hydrogenase, SH); assay: protein film electrochemistry, Dixon plot; assay type: biochemical

Structure (SMILES): Nc1ncnc2c1ncn2[C@@H]1O[C@H](COP(=O)(O)OP(=O)(O)OC[C@H]2OC(O)[C@H](O)[C@@H]2O)[C@@H](O)[C@H]1O (stereo partly drawn) [ADP-ribose]
protein film electrochemistry, inhibition of NAD+ reduction current [1]: effect of injections of ADP-ribose on NAD^+ reduction by HoxFU, confirming that ADP-ribose is an inhibitor

Ki ([2]; read-out: K I(NADH)): 200 to 300 µM
Structure (SMILES): NC(=O)C1=CN([C@@H]2O[C@H](COP(=O)(O)OP(=O)(O)OC[C@H]3O[C@@H](n4cnc5c(N)ncnc54)[C@H](O)[C@@H]3O)[C@@H](O)[C@H]2O)C=CC1 [NADH]

Ki ([2]; read-out: K I(NAD+)): 100 to 300 µM
Structure (SMILES): NC(=O)c1ccc[n+]([C@@H]2O[C@H](COP(=O)(O)OP(=O)(O)OC[C@H]3O[C@@H](n4cnc5c(N)ncnc54)[C@H](O)[C@@H]3O)[C@@H](O)[C@H]2O)c1 [NAD^+]
